Laboratory results published in patent publication US20160109459A1, “Compositions And Methods For Heparan Sulfate As A Biomarker For Transplant Rejection” (Duke University, priority 2012, published 2016).

Experiments:
BALB/c DCs = experiment: DC production of pro-inflammatory cytokines by ELISA; assay type: cell-based, mouse
Method: FIG. 3A is a graph showing WT, TLR4^−/−, or MyD88^−/− BALB/c DCs (2×10^5/well) were stimulated with LPS (100 ng/mL), HS (100 μg/mL), or Pam3CSK4 (2 μg/mL), or left unstimulated (media) for 24 hours, and measured for surface expression of co-stimulatory molecules CD40 and CD80 by FACS analysis. FIGS. 3B and 3C are graphs showing WT, MyD88^−/−, and TLR4^−/− BALB/c cultured DCs were co-cultured with media alone, LPS, HS, or Pam3CSK4 as in (A) and culture supernatants were tested for IL-6 (B) and IL-12 (C) by ELISA. Data are representative of three independent experiments; *p<0.05 compared with media alone.
Lethally irradiated BALB/c recipients received either 1×10^7 B10.D2 TCD-BM only (Allo-BM), 1×10^7 B10.D2 TCD-BM and 5×10^6 B10.D2 LCs (Allo-BM+LC), or 1×10^7 BALB/c TCD-BM and 5×10^6 BALB/c LCs (Syn-BM+LC). FIG. 6A is a graph showing HS concentrations following transplantation as determined by ELISA at the indicated time points; n=2-5 samples per time point; *p<0.05 comparing Allo-BM+LC and Allo-BM at the indicated time point. FIG. 6B is a graph showing the half maximal effective concentration (EC50) of HS on DC stimulation, BALB/c DCs (2×10^5/well) following 24 hr of culture with differing concentrations of HS in triplicate and IL-6 production was tested by ELISA. Results are representative of three independent experiments.
FIG. 13 is a graph showing WT, MyD88^−/−, and TLR4^−/− BALB/c cultured DCs that were co-cultured with media alone, LPS, HS, or Pam3CSK4 and tested for TNF-α as determined by ELISA assay.
Cytokine analysis: Cell culture supernatants were obtained from DC cultures or T cell proliferation assays and assayed for IL-6, IL-12 and IFN-γ by ELISA (BD Biosciences) according to the manufacturer's standard protocols. HEK 293 supernatants were tested for human IL-8 by ELISA (BioLegend, San Diego, United States).
To determine if the in vivo concentrations of HS were sufficient to cause DC activation, the production of IL-6 by cultured DCs in response to a range of HS concentrations was tested (FIG. 6B).

human TLR4 = target: T1, human TLR4 (Homo sapiens, UniProt O00206); experiment: NF-κB dual luciferase reporter assay in HEK TLR4-MD2-CD14 cells; assay type: cell-based; conditions: HS 100 μg/mL, 6 hours, TLR4 expressing cell lines
T1 construct: expressed in transfected cells; host or cells: HEK 293 (gift from Dr. Michael Fessler, NIEHS)
T1 sequence (O00206 24-839): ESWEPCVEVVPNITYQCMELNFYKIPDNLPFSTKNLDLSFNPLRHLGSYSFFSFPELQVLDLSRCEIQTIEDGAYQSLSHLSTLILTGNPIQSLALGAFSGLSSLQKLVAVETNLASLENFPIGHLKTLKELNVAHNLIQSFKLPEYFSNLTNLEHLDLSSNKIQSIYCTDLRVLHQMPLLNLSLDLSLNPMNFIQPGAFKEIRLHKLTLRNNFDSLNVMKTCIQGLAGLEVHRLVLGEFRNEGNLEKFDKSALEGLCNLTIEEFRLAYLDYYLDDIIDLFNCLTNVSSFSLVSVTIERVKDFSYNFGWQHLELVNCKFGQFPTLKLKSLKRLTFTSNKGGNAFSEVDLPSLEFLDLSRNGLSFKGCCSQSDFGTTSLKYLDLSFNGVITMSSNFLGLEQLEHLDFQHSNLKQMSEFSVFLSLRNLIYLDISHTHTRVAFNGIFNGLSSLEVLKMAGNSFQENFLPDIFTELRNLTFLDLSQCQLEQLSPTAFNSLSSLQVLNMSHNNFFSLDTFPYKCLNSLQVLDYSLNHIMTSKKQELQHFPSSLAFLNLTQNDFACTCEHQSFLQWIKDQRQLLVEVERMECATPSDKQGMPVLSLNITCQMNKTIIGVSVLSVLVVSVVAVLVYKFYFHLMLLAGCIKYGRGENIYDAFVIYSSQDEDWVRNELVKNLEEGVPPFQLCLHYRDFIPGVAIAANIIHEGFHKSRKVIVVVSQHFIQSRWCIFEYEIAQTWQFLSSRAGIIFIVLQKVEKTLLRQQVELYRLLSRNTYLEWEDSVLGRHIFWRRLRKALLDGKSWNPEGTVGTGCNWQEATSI
T1 sequence (Q9Y6Y9 17-160 partner limits assumed): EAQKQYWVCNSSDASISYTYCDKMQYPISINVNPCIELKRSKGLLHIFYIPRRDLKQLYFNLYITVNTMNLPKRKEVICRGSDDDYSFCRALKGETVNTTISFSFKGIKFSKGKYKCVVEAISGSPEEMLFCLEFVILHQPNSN
Method: HEK cell lines stably expressing CD14 and MD2 alone (HEK MD2-CD14), or co-expressed with human TLR2 (HEK TLR2-MD2-CD14) or human TLR4 (HEK TLR4-MD2-CD14) were transfected with a plasmid encoding firefly luciferase (F) under control of the NF-κB promoter along with a plasmid expressing Renilla luciferase (R) under control of the thymidine kinase promoter as a transfection control. Cell lines were cultured for 6 hours with media alone, LPS (100 ng/mL), HS (100 μg/mL), or Pam3CSK4 (2 μg/mL). FIG. 5A is a graph showing the ratio of F/R was measured by dual luciferase reporter assay to determine NF-κB activation of lysed cells, *p<0.05 compared with media alone. FIG. 5B is a graph showing results supernatants analyzed for IL-8 production by ELISA. […]
Luciferase reporter assay: Luciferase activity was measured using the Dual-Luciferase Reporter Assay (Promega, Madison, Wis., USA) according to the manufacture's recommended protocol. Luminescence was measured using an LMax Luminometer (Molecular Devices, Sunnyvale, United States).
A heterodimer of different TLRs is required for some PAMPs. […] The ratio of luminescence produced by firefly luciferase to Renilla luciferase (F/R) was then measured in response to media alone, LPS, HS, and Pam3CSK4. The production of IL-8, which is downstream of NF-κB activation, by ELISA was also measured. […]

[1] = BALB/c DCs 2×10^5/well, 24 hr culture

With heparan sulfate [HS] the “concentration achieving maximal response (IL-6 production by DCs)” value (BALB/c DCs; [1]) was 12.5 µg/mL, the “half maximal effective concentration (EC50) on DC stimulation (IL-6 production)” value (BALB/c DCs; [1]) was “approximately 4 μg/mL” and the “production of IL-6 and IL-12 from TLR4−/− or MyD88−/− DCs” value (BALB/c DCs; HS 100 μg/mL, 24 h) was “but not from TLR4^−/− or MyD88^−/− DCs”. The “production of IL-6 and IL-12 from WT DCs” value (BALB/c DCs; HS 100 μg/mL, 24 h, not inhibited by PMB) was “stimulated DCs to produce”, the “DC expression of TNF-α” value (BALB/c DCs; TLR4- and MyD88-dependent) was “up-regulate” and the “NF-κB activation (ratio F/R)” value (human TLR4) was “caused NF-κB activation”.
